The text below walks through data of patent EP2435019B1, “DODECA-2E,4E-DIENE AMIDES AND THEIR USE AS MEDICAMENTS AND COSMETICS” (Dr. August Wolff GmbH & Co. KG Arzneimittel, priority 2009, dated 2010).

Molecules are shown by their SMILES. Read-outs that look alike come from different tables or passages of the source.

The test system of data set [1] is FAAH. Particulars: cited from earlier work.
Data set [2] has as its target T1, CB1 (Homo sapiens, UniProt P21554).
T1 construct: purchased Perkin Elmer RBHCB1M
Description: Radioligand displacement assay on CB1 receptor. It is filed as binding. As to the method: (§1) For the CB1 receptor, binding experiments were performed in the presence of 0.39 nM of the radioligand [^3H]CP55,940 (168 Ci/mmol) (Perkin Elmer, Waltham, MA, US) at 30°C in siliconized glass vials together with 7.16 µg of membrane recombinantly over-expressing CB1 (No. RBHCB1M, Perkin Elmer, Waltham, MA, US), which was resuspended in 0.2 mL (final volume) binding-buffer (50 mM TRIS-HCl, 2.5 mM EGTA, 5 mM MgCl2, 0.5 mg/mL fatty acid free BSA, pH 7.4). Test compounds were present at varying concentrations and the nonspecific binding of the radioligand was determined in the presence of 10 µM CP55,940 (Tocris Cookson Ltd., Bristol, UK). After 1.5 h incubation, the suspension was rapidly filtered through 0.05% polyethylenimine pre-soaked GF/C glass fiber filters on a 96-well cell harvester and washed nine times with 0.5 mL ice-cold washing-buffer (50 mM TRIS-HCl, 2.5 mM EGTA, 5 mM MgCl2, 2% BSA, pH 7.4). Radioactivity on filters was measured with a Beckman LS 6500 scintillation counter in 3 mL Ultima Gold scintillation liquid (Perkin Elmer, Waltham, MA, US). Data collected from three independent experiments performed in triplicates were normalized between 100% and 0% specific binding for [^3H]CP55,940. […] Derived from the dissociation constant (KD) of [^3H]CP55,940 and the concentration-dependent displacement (IC50 value), inhibition constants (Ki) of competitor compounds were calculated using the Cheng-Prusoff equation [Ki = IC50/(1+ L/KD)].

The conditions of data set [3]: at 50 µM; Chen 2005; cited from earlier work.
The test system of data set [4] is Arachidonoylethanolamide Transport (AEAT). Description: Cellular uptake of [3H]-AEA in U937 cells (assay C). It is filed as cell-based. To be noted: Homo sapiens, U-937; [3H]-AEA uptake, assay C (Tables 2 and 3).
Data set [5] can be described thus: Critical micelle concentration (CMC) measurement, dye micellization. It is filed as physicochemical. To be noted: fluorescein dye micellization in water, pH 6.9, room temperature. As to the method:
Dye micellization was carried out with a modified version of the method described by Eliyahu et al., Novel dextran-spermine conjugates as transfecting agents: comparing water-soluble and micellar polymers. […] Experiments were carried out on 96-well microtiter plates (excitation at 485 nm, emission at 535 nm). Since the emission of fluorescein is pH-dependent, the pH of the mixture was kept constant at 6.9. The CMC range was determined as the concentration range where the first statistically significant increase in fluorescence was detected.

Data set [6] addresses T2, FAAH (Sus scrofa, UniProt Q9TUI8).
T2 construct: 165 µl of diluted pig brain homogenate; from tissue; host or cells: pig brain homogenate
T2 sequence (Q9TUI8 1-579): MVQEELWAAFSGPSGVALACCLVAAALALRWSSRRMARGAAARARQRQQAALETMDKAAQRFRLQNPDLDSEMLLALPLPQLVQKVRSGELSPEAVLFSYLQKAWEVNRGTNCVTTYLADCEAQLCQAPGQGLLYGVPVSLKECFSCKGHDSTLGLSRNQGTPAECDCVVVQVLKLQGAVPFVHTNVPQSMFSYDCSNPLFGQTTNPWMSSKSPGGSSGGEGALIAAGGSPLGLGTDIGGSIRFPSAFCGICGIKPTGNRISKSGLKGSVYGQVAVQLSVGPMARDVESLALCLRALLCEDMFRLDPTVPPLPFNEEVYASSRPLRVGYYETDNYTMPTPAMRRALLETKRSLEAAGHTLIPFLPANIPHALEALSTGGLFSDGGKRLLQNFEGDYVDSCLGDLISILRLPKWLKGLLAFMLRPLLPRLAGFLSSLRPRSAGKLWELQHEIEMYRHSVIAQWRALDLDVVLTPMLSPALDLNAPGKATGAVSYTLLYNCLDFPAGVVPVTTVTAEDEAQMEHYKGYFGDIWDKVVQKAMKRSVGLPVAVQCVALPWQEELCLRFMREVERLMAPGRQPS
Briefly: Fatty acid amide hydrolase (FAAH) inhibition, pig brain homogenate (assay D). It is filed as biochemical. To be noted: 1 µM; pig brain homogenate (assay D). On the procedure: FAAH activity was assessed using pig brain homogenate according to the method described by Omeir et al., Arachidonoyl ethanolamide-[1,2-14C] as a substrate for anandamide amidase. Life Sci. 1995;56(23-24):1999-2005, and adapted by Fowler et al., Ibuprofen inhibits rat brain deamidation of anandamide at pharmacologically relevant concentrations. Mode of inhibition and structure-activity relationship. J Pharmacol Exp Ther. 1997 Nov;283(2):729-34. Briefly, 10 µl of test compounds at the adequate concentration or solvent were incubated at 37°C for 20 min with 165 µl of diluted pig brain homogenate in 10 mM Tris-HCl and 1 mM EDTA, pH 7.6 (corresponding to 100 µg/ml of total protein), 1% w/v fatty acid free BSA (Sigma, San Louis, MO, US) and 25 µl of a mixture 1:1 of nonradioactive AEA [^3H]-AEA (60 Ci mmol^-1) (concentration in the assay was 2 µM). Successively, 400 µl of a mixture 1:1 (v/v) of methanol:chloroform was added at each sample and, after vigorous vortexing, aqueous and organic phases were separated by centrifugation at 10000 rpm for 10 min. The radioactivity associated to the [^3H]-ethanolamine (produced by FAAH-catalysed breakdown of [^3H]-AEA) was measured upon addition of 3 ml of Ultima Gold scintillation liquid (Perkin Elmer, Waltham, MA, US) to 200 µl of the aqueous (upper) phase, using a Beckman LS6500 scintillation counter. Results were expressed as % of FAAH activity vs. pig brain homogenate treated only with solvent.

Data set [7] relates to RAW264.7 mouse macrophage cells. Particulars: at 50 µM; LaLone 2007; cited from earlier work.
Data set [8] has as its target CB1 (Rattus norvegicus, UniProt P20272). Particulars: Woelkart, Planta Med. 2005; cited from earlier work.
In another data set the test system is PGE2 production. To be noted: at 50 µM; LaLone 2007; cited from earlier work.
The target of data set [9] is T3, CB2 (Homo sapiens, UniProt P34972). Briefly: Radioligand displacement assay on CB2 receptor. It is filed as binding. Set-up: purchased Perkin Elmer RBXCB2M. On the procedure:
as §1
For CB2-receptor binding studies 3.8 µg of membrane recombinantly over-expressing CB2 (No. RBXCB2M, Perkin Elmer, Waltham, MA, US) were resuspended in 0.6 mL binding buffer (see above) together with 0.11 nM of the radioligand [^3H]CP55,940. The CB2-binding assay was conducted in the same manner as for CB1.
(In a radioligand displacement assay an active substance lowers the binding of a labelled ligand.)

The target of data set [10] is T3, CB2. To be noted: read-out: affinity towards CB2 receptors, Ki; Gertsch, Planta Med. 2008; cited from earlier work.
A further data set deals with CB2 receptors. Particulars: Woelkart, Planta Med. 2005; cited from earlier work.
The test system of the next data set is NO2^- production. Briefly: NO2- production in LPS-stimulated human macrophages (Griess reagent). It is filed as cell-based. Particulars: Figure 5; LPS 500 ng/ml; 5 µM for 18 h. On the procedure:
(§2) • Figure 1: AEA re-uptake inhibition of 2E,4E-dieneamides 1 and 9 into human primary monocytes and U937 cells. […] Data are mean values ± SEM of 3 independent experiments in a sigmoidal dose-response curve. • Figure 2: Concentration-dependent effects of 4 and 5 on FAAH activity. […] The maximal inhibition (32%) of 5 was measured at 1 µM. Data are mean values ± SEM of 3 independent experiments. • Figure 3: Effects of low nM concentrations of N-alkylamide 7 on FAAH activity alone and in combination with the FAAH inhibitor URB597. […] Data are mean values ± SEM of 3 independent experiments. • Figure 4: 1 and 9 inhibit LPS-induced TNF-alpha release into culture medium (measured by ELISA). Human macrophages (10^6 cells) were stimulated with LPS (500 ng/ml) and treated with UCM707 and/or compounds 1 and 9 at 5 µM for 18 h. N = 3 ± SEM. • Figure 5: UCM707 (positive control) and compounds 1 and 9 diminish NO2^- production. Human macrophages (10^6 cells) were stimulated with LPS (500 ng/ml) and treated with UCM707 and/or compounds 1 and 9 at 5 µM for 18 h. Culture supernatants were assayed for nitrite levels, using the Griess reagent as a reflection of NO production. Results are the mean ± SEM of four independent experiments performed in duplicate • Figure 6: In CB receptor expressing human HaCaT keratinocytes (10^6 cells) UCM707 (control) 1 and 9 like the endocannabinoid anandamide (each 5 µM) inhibited tolerogen (10 µg/ml) induced chemokine IL-8 (6h stimulation and incubation). N = 3 ± SEM.
(The Griess reaction detects nitrite, a stable product of nitric oxide.)

For data set [11], the system named is Arachidonoylethanolamide Transport (AEAT). Briefly: Cellular uptake of [3H]-AEA in U937 cells (assay C). The data set is classed as cell-based, Human. To be noted: Figure 1(b); mean ± SEM of 3 independent experiments; read-out: EC50 value, AEA re-uptake inhibition. As to the method: 5x10^5 cells were collected and suspended in 500 µL of sterile PBS (Sigma, San Louis, MO, US) using glass silanized tubes. Cells were pre-incubated 10 min at 37°C in presence of test compounds in a concentration range of 10^-8 - 10^-4 M or in presence of the same amount of solvent (control). Then a mixture of 50 nM [^3H]-AEA (60 Ci/mmol) (American Radiolabeled Chemicals, Inc., San Louis, MO, US) and 50 nM of nonradioactive AEA (Tocris Cookson Ltd., Bristol, UK) was added and samples were incubated at 37°C for different times in the range of 1-60 min. The reaction was stopped by rapid filtration over Whatman GF/C filters pre-soaked in 0,25 % BSA. […] The filters-bound radioactivity was measured using a Beckman LS6500 scintillation counter. Results were expressed as % of AEA uptake versus cells treated with solvent and the EC50 and IC50 values were calculated from the sigmoidal curves, which were generated using the GraphPad Prism (GraphPad Software, San Diego, CA, US).

The subject of a further data set is [3H]-AEA uptake. Description: Cellular uptake of [3H]-AEA in human primary monocytes (assay C). The data set is classed as cell-based. To be noted: Figure 1(a), 1 µM. As to the method:
as §2, with “Results are the mean ± SEM of four independent experiments performed in duplicate • Figure 6: In CB receptor expressing human HaCaT keratinocytes (10^6 cells) UCM707 (control) 1 and 9 like the endocannabinoid anandamide (each 5 µM) inhibited tolerogen (10 µg/ml) induced chemokine IL-8 (6h stimulation and incubation). N = 3 ± SEM.” left out
Human lymphoma U937 cells were grown in RPMI 1640 medium (Invitrogen, Basel, Switzerland) supplemented with 10% fetal bovine serum, […] fungizone (amphotericin B), 100 units/ml penicillin, 100 µg/ml streptomycin, and 2 mM L-glutamine (all from Invitrogen) and selected for the cellular AEA uptake assay. […] The filters-bound radioactivity was measured using a Beckman LS6500 scintillation counter. Results were expressed as % of AEA uptake versus cells treated with solvent and the EC50 and IC50 values were calculated from the sigmoidal curves, which were generated using the GraphPad Prism (GraphPad Software, San Diego, CA, US).

The next data set relates to IL-8. Briefly: Induced chemokine IL-8 in HaCaT keratinocytes. The data set is classed as cell-based, human. Particulars: Figure 6, 5 µM, tolerogen 10 µg/ml, 6h. As to the method: as §2

T3 sequence (P34972 whole entry): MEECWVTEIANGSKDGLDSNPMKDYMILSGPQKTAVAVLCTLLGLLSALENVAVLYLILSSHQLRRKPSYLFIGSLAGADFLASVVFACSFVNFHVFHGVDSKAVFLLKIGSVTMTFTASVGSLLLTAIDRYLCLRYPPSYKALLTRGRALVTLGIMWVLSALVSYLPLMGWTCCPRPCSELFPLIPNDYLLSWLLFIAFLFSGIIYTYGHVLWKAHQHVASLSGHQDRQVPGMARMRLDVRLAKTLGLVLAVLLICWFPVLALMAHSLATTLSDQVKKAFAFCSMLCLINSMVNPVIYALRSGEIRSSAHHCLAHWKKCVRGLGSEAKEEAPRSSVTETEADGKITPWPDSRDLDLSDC
T1 sequence (P21554 whole entry): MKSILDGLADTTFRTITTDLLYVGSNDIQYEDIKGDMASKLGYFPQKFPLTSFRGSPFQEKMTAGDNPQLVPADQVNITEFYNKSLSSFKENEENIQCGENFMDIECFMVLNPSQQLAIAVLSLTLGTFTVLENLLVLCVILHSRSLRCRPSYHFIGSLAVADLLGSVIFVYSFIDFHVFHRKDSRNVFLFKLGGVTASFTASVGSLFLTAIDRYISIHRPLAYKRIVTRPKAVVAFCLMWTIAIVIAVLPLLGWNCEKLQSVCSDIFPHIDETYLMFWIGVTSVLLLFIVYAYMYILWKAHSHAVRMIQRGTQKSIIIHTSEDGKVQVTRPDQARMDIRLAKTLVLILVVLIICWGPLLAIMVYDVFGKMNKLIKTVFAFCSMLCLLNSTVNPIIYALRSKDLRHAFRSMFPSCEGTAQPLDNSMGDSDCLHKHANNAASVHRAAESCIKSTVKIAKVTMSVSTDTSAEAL
Chain of CB1 (Rattus norvegicus, UniProt P20272) (P20272 whole entry): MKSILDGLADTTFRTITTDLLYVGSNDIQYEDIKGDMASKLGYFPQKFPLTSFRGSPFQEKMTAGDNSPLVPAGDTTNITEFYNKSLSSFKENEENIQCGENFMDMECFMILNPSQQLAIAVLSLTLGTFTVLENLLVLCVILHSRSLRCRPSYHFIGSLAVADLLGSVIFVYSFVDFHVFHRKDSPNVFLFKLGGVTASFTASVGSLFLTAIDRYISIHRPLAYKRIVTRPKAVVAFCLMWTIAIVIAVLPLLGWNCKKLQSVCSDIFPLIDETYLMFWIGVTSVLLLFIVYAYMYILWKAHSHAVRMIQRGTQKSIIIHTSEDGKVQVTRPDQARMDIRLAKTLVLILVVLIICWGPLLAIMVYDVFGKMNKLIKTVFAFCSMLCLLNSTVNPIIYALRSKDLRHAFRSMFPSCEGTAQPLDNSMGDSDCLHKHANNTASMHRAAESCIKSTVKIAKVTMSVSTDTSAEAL

For the compound `CCCCCCC/C=C/C=C/C(=O)NCC(C)C` [Compound A, (2E,4E)-N-isobutyldodeca-2,4-diene amide], the “inhibition of FAAH” value was “did not inhibit” in the data set with FAAH [1] (Gertsch, Planta Med. 2008) and “very weak inhibitor” in the data set with FAAH [1] (Woelkart, Planta Med. 2005). Further, the Ki was 1940 ± 213 nM at CB1 [2] (displacement of 0.39 nM [3H]CP55,940, membrane recombinantly over-expressing CB1, read-out: Receptor affinity Ki CB1); 60 ± 7 nM on CB2 [9] (displacement of 0.11 nM [3H]CP55,940, membrane recombinantly over-expressing CB2, read-out: Receptor affinity Ki CB2); < 100 nM on CB2 [10]. Further, the “affinity towards CB1 (in words)” value at CB1 [2] (summary of Table 3) is “moderate affinity”. Also, the cell death in [3] is 50%. In addition, the concentration for a half-maximal effect (EC50) in data set [4] was > 10000 nM. The CMC in data set [5] is on record as <0.5 µM. The “FAAH inhibition at 1 µM” value at FAAH [6] was <10 % of control. Further, the cytotoxicity entry in data set [7] is on record as “No significant cytotoxicity”. The “affinity to CB1 receptor” value at CB1 [8] was “single digit micromolar range”. The PGE2 production entry with PGE2 production was “inhibiting”. Further, the “affinity towards CB2 (in words)” value on CB2 [9] (summary of Table 3) is listed as “high affinity”. Further, in the data set on CB2 receptors, the “affinity to CB2 receptor” value is recorded as “single digit micromolar range”.

Consider `CCCCC/C=C\C/C=C\C/C=C\C/C=C\CCCC(=O)NCc1ccoc1` [UCM707, reference compound], for which the “NO2^- production” value in the data set on NO2^- production is given as “diminish”. The EC50 in data set [11] stood at 1420 ± 296 nM. For the same compound, the “[3H]-AEA uptake inhibition” value in data set [3H]-AEA uptake is “clearly less active”. The “tolerogen induced chemokine IL-8” value in the data set with IL-8 is “inhibited”.

By Ki is commonly meant a dissociation constant, usually derived from enzyme kinetics or from competition with a known ligand. Usually EC50 stands for the concentration at which the effect is half-maximal.
